# In patent publication US8802720B2, “Acylamino-substituted fused cyclopentanecarboxylic acid derivatives and their use as pharmaceuticals” (SANOFI, priority 2008, dated 2014):
# Target: human Edg-2 receptor (LPA1 receptor) (Homo sapiens, UniProt Q92633)
# Assay: Edg-2 receptor inhibition by FLIPR calcium fluorescence measurement (LPA-mediated calcium liberation)
# Type: cell-based
# Conditions: CHO cells stably overexpressing human Edg-2 receptor; LPA 18:1 100 nM; fluo-4 fluorescence; triplicate; read-out: Inhibitory concentrations IC50 for inhibition of the Edg-2 receptor
# Method: A) Determination of Edg-2 Receptor Inhibition by Fluorescence Imaging Plate Reader (FLIPR) Measurements
# The inhibition of the Edg-2 receptor (LPA1 receptor) by the compounds of the invention was quantified by the inhibitory effect on the LPA-mediated calcium liberation in a cell-based calcium fluorescence assay by use of Chinese hamster ovarian (CHO) cells in which the human Edg-2 receptor was stably overexpressed (FIp-In system, Invitrogen). […] Changes in intracellular calcium were determined by fluorescence measurement with the calcium-sensitive dye fluo-4 (Invitrogen) in a fluorescence imaging plate reader (FLIPR, […]).
# CHO cells stably overexpressing the human Edg-2 receptor were seeded (40.000 per well) in black clear-bottomed poly-D-lysine-coated 96 well plates (Becton Dickinson, Biocoat cellware) approximately 18-24 h prior to the experiments. Cells were grown in an incubator at 37° C., 5% carbon dioxide and 95% humidity in cell culture media based on F-12 glutamax media (Gibco, #31765) supplemented with 1% (vol/vol) penicilline/streptomycine (PAN, #P06-07100), 10% (vol/vol) fetal calf serum (FCS, PAA, #A15-151) and hygromycin B (Invitrogen, #10687-010) 300 mg/l (final concentrations).
# Prior to the FLIPR experiment, cells were loaded with fluo-4 acetoxymethyl ester (fluo-4 AM, Invitrogen, #F14202) for 60 min in an incubator at 37° C., 5% carbon dioxide and 95% humidity in dye-loading buffer consisting of Hanks' Balanced Salt Solution (HBSS, Invitrogen, #14065049) supplemented with fluo-4 AM at 2 μM (all data given for final concentration), Pluronic® F-127 0.05% (vol/vol) (Invitrogen, #P-3000 MP), HEPES 20 mM (Gibco, #15630), probenecid 2.5 mM (Sigma, #P-8761) and bovine serum albumin 0.05% (BSA, Sigma, #A-6003), adjusted to pH 7.5 with sodium hydroxide. During cell loading, fluo-4 AM is cleaved by intracellular esterase resulting in trapping of the dye fluo-4 within the cells. Loading was terminated by washing of the cells in a cell washer (Tecan Power washer) three times with the buffer specified afore but without fluo-4 AM and BSA. This latter buffer was also used as the buffer in the subsequent cell fluorescence measurements.
# The dye-loaded and washed cells were pre-incubated for approximately 5 min with various concentrations of the test compound added as a solution in DMSO (0.3% vol/vol maximum final concentration of DMSO), or with DMSO in the respective concentration only (positive control). Subsequent addition of LPA (18:1, 1-oleoyl-sn-glycerol 3-phosphate; 100 nM final concentration) leads to liberation of intracellular calcium from internal stores resulting in a large transient increase of the fluo-4 fluorescence signal which was monitored over approximately 3 min. The percent inhibition caused by the test compound was determined from the maximum fluorescence response after LPA addition to cells pre-incubated with the compound as compared to the maximum fluorescence response after LPA addition to cells pre-incubated with DMSO only. All fluorescence values were corrected for the baseline fluorescence values obtained with cells which were pre-incubated with DMSO only and were not treated with LPA (baseline control). All measurements were performed in triplicate. From the percent inhibitions the inhibitory concentration IC50 was determined.
# human Edg-2 receptor (LPA1 receptor), sequence (Q92633 whole entry): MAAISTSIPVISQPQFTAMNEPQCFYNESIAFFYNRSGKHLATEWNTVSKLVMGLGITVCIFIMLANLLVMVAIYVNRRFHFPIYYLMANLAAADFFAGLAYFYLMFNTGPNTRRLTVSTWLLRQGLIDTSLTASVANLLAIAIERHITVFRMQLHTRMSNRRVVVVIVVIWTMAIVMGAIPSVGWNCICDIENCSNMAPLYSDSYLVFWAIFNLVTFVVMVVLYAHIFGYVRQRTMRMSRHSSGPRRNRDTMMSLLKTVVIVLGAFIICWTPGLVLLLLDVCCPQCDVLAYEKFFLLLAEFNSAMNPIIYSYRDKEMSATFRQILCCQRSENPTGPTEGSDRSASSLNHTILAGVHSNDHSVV
row,SMILES,IC50
1,COc1ccc(C(=O)NC2(C(=O)O)Cc3ccccc3C2)cc1OCCc1c[nH]c2ccccc12 [Example 32],1000 to 30000 nM
2,COc1ccc(C(=O)NC2(C(=O)O)Cc3ccccc3C2)cc1-c1ccccc1Cl [Example 281],1000 to 30000 nM
3,COc1ccc(C(=O)NC2(C(=O)O)Cc3ccccc3C2)cc1OCc1cn(-c2ccccc2)nn1 [Example 79],1000 to 30000 nM
4,Cc1cccc(CCOc2cccc(C(=O)NC3(C(=O)O)Cc4ccccc4C3)c2)c1 [Example 141],1000 to 30000 nM
5,"COc1ccc(C(=O)NC2(C(=O)O)Cc3ccccc3C2)cc1OCC(O)c1ccccc1F (centres unmarked) [Example 167, 2-{3-[2-(2-Fluoro-phenyl)-2-hydroxy-ethoxy]-4-methoxy-benzoylamino}-indane-2-carboxylic acid]",1000 to 30000 nM
6,"N#Cc1ccc(C(=O)NC2(C(=O)O)Cc3ccccc3C2)cc1N1CCC(c2ccccc2)C1 (centres unmarked) [Example 174, 2-[4-Cyano-3-[3-phenyl-pyrrolidin-1-yl)-benzoylamino]-indane-2-carboxylic acid]",1000 to 30000 nM
7,"COc1ccc(C(=O)NC2(C(=O)O)Cc3ccccc3C2)cc1N(C)CCc1cccc(C)c1 [Example 172, 2-{4-Methoxy-3-[methyl-(2-m-tolyl-ethyl)-amino]-benzoylamino}-indane-2-carboxylic acid]",1000 to 30000 nM
8,COc1ccc(C(=O)NC2(C(=O)O)Cc3ccccc3C2)cc1OCCCN1CCCC1=O [Example 68],1000 to 30000 nM
9,COc1ccc(C(=O)NC2(C(=O)O)Cc3ccccc3C2)cc1OCCCC(C)C [Example 43],1000 to 30000 nM
10,COc1ccc(C(=O)NC2(C(=O)O)Cc3ccccc3C2)cc1OCC1CCC(C)CC1 (centres unmarked) [Example 57],1000 to 30000 nM
11,COc1ccc(C(=O)NC2(C(=O)O)Cc3ccccc3C2)cc1OCCC1CCCCC1 [Example 30],1000 to 30000 nM
12,COc1ccc(C(=O)NC2(C(=O)O)Cc3ccccc3C2)cc1OS(=O)(=O)c1ccccc1C [Example 112],1000 to 30000 nM
13,CCc1ccc(COc2cc(C(=O)NC3(C(=O)O)Cc4ccccc4C3)ccc2OC)cc1 [Example 41],1000 to 30000 nM
14,"Cc1cccc(CCOc2cc(C(=O)NC3(C(=O)O)Cc4ccccc4C3)ccc2S(C)(=O)=O)c1 [Example 6, 2-[4-Methanesulfonyl-3-(2-m-tolyl-ethoxy)-benzoylamino]-indane-2-carboxylic acid]",1000 to 30000 nM
15,COc1ccc(C(=O)NC2(C(=O)O)Cc3ccccc3C2)cc1OCc1ccc(Cl)cc1 [Example 39],1000 to 30000 nM
16,COc1ccc(C(=O)NC2(C(=O)O)Cc3ccccc3C2)cc1OCc1ccc(C(C)(C)C)cc1 [Example 40],1000 to 30000 nM
17,COCCOc1cc(C(=O)NC2(C(=O)O)Cc3ccccc3C2)ccc1OC [Example 33],1000 to 30000 nM
18,COc1ccc(C(=O)NC2(C(=O)O)Cc3ccccc3C2)cc1OCCc1ccsc1 [Example 146],100 to 1000 nM
19,"COc1ccc(C(=O)NC2(C(=O)O)Cc3ccccc3C2)cc1C(=O)COc1cccc(C)c1 [Example 113, 2-[4-Methoxy-3-(2-m-tolyloxy-acetyl)-benzoylamino]-indane-2-carboxylic acid]",1000 to 30000 nM

# Second part, the compound after the results:
row,IC50,SMILES
1,100 to 1000 nM,COc1ccc(C(=O)NC2(C(=O)O)Cc3ccccc3C2)cc1-c1cccc(-n2cccn2)c1 [Example 334]
2,< 100 nM,CCCCCOc1ccc(C(=O)NC2(C(=O)O)Cc3ccccc3C2)cc1OCCc1cccc(C)c1 [Example 263]
3,< 100 nM,"COc1ccc(C(=O)NC2(C(=O)O)Cc3ccc(Br)cc3C2)cc1OCCc1cccc(C)c1 (centres unmarked) [Example 156, 5-Bromo-2-[4-methoxy-3-(2-m-tolyl-ethoxy)-benzoylamino]-indane-2-carboxylic acid]"
4,100 to 1000 nM,COCc1ccccc1-c1cc(C(=O)NC2(C(=O)O)Cc3ccccc3C2)ccc1OC [Example 316]
5,100 to 1000 nM,"CC(=O)c1sc(C(=O)NC2(C(=O)O)Cc3ccccc3C2)cc1OCCc1cccc(C)c1 [Example 102, 2-{[5-Acetyl-4-(2-m-tolyl-ethoxy)-thiophene-2-carbonyl]-amino}-indane-2-carboxylic acid]"
6,< 100 nM,"COc1ncc(C(=O)NC2(C(=O)O)Cc3ccccc3C2)cc1OCCc1cccc(CCO)c1 [Example 275, 2-[(5-{2-[3-(2-Hydroxy-ethyl)-phenyl]-ethoxy}-6-methoxy-pyridine-3-carbonyl)-amino]-indane-2-carboxylic acid]"
7,< 100 nM,"COc1ccc(C(=O)NC2(C(=O)O)Cc3ccccc3C2)cc1-c1cccc(CC#N)c1 [Example 199, 2-[(3′-cyanomethyl-6-methoxy-biphenyl-3-carbonyl)-amino]-indane-2-carboxylic acid]"
8,100 to 1000 nM,COc1ccc(C(=O)NC2(C(=O)O)Cc3ccccc3C2)cc1-c1cc(C)c(C)cc1C [Example 317]
9,100 to 1000 nM,Cc1cccc(CCOc2cc(C(=O)NC3(C(=O)O)Cc4ccccc4C3)ccc2OCCN(C)C)c1 [Example 265]
10,< 100 nM,"COc1ncc(C(=O)NC2(C(=O)O)Cc3ccccc3C2)cc1-c1cccc(C(C)C)c1 [Example 221, 2-{[5-(3-Isopropyl-phenyl)-6-methoxy-pyridine-3-carbonyl]-amino}-indane-2-carboxylic acid]"
11,< 100 nM,CSCCOc1ccc(C(=O)NC2(C(=O)O)Cc3ccccc3C2)cc1OCCc1cccc(C)c1 [Example 267]
12,< 100 nM,COc1ccc(C(=O)NC2(C(=O)O)Cc3ccccc3C2)cc1-c1ccc(F)c(C(F)(F)F)c1 [Example 345]
13,100 to 1000 nM,"COc1ccc(C(=O)NC2(C(=O)O)Cc3ccccc3C2)cc1OCCc1cccc(C(C)(CO)CO)c1 [Example 210, 2-(3-{2-[3-(2-Hydroxy-1-hydroxymethyl-1-methyl-ethyl)-phenyl]-ethoxy}-4-methoxy-benzoylamino)-indane-2-carboxylic acid]"
14,< 100 nM,"COc1ccc2c(c1)CC(NC(=O)c1ccc(OC)c(OCCc3cccc(C)c3)c1)(C(=O)O)C2 (centres unmarked) [Example 159, 5-Methoxy-2-[4-methoxy-3-(2-m-tolyl-ethoxy)-benzoylamino]-indane-2-carboxylic acid]"
15,< 100 nM,"COc1ccc(C(=O)NC2(C(=O)O)Cc3c(F)ccc(F)c3C2)cc1OCCc1cccc(C)c1 [Example 214, 4,7-Difluoro-2-[4-methoxy-3-(2-m-tolyl-ethoxy)-benzoylamino]-indane-2-carboxylic acid]"
16,100 to 1000 nM,COc1cccc(CCOc2cc(C(=O)NC3(C(=O)O)Cc4ccccc4C3)ccc2OC)c1 [Example 133]
17,< 100 nM,"COc1ccc(C(=O)NC2(C(=O)O)Cc3ccccc3C2)cc1OCCc1cccc(SC)c1 [Example 16, 2-{4-Methoxy-3-[2-(3-methylsulfanyl-phenyl)-ethoxy]-benzoylamino}-indane-2-carboxylic acid]"
18,100 to 1000 nM,COc1ccc(C(=O)NC2(C(=O)O)Cc3ccccc3C2)cc1-c1cccc(CCC(=O)O)c1 [Example 328]
19,< 100 nM,COc1ncc(C(=O)NC2(C(=O)O)Cc3ccccc3C2)cc1-c1cccc(Cl)c1 [Example 223]
20,< 100 nM,COc1ccc(C(=O)NC2(C(=O)O)Cc3ccccc3C2)cc1-c1cc(F)cc(OC(C)C)c1 [Example 343]
21,100 to 1000 nM,COc1ccc(C(=O)NC2(C(=O)O)Cc3ccccc3C2)cc1-c1cc(Cl)ccc1F [Example 332]
22,< 100 nM,"COc1ccc(C(=O)NC2(C(=O)O)Cc3ccccc3C2)cc1OCCc1cccc(C#N)c1 [Example 94, 2-{3-[2-(3-Cyano-phenyl)-ethoxy]-4-methoxy-benzoylamino}-indane-2-carboxylic acid]"
23,< 100 nM,"Cc1cccc(CCOc2cc(C(=O)NC3(C(=O)O)Cc4ccccc4C3)ccc2OCC2CC2)c1 [Example 266, 2-[4-cyclopropylmethoxy-3-(2-m-tolyl-ethoxy)-benzoylamino]-indane-2-carboxylic acid]"
24,< 100 nM,"COc1ccc(C(=O)NC2(C(=O)O)Cc3ccccc3C2)cc1OCCc1cccc(CC(C)(C)O)c1 [Example 249, 2-(3-{2-[3-(2-Hydroxy-2-methyl-propyl)-phenyl]-ethoxy}-4-methoxy-benzoylamino)-indane-2-carboxylic acid]"
25,< 100 nM,CCc1cccc(-c2cc(C(=O)NC3(C(=O)O)Cc4ccccc4C3)ccc2OC)c1 [Example 202]
